Residue numbers refer to the chain shown, from its start.

For one data set, the target named is T1, W67 KcsA (Streptomyces lividans, UniProt P0A334, W113F/W26F/W68F/W87F).
T1 construct: quadruple mutant KcsA with a single Trp (W67) per subunit, homotetramer, His-tag purified from E. coli, in DDM detergent
The experiment in a line: thermal denaturation titration with fitted KD; pH […] (pH […]); effect supported by homo-FRET. The data set is classed as binding.

A further data set deals with T2, KcsA (Streptomyces lividans, UniProt P0A334).
T2 construct: wild-type (WT) KcsA, homotetramer, His-tag purified from E. coli, in DDM detergent
T2 sequence (P0A334 1-160): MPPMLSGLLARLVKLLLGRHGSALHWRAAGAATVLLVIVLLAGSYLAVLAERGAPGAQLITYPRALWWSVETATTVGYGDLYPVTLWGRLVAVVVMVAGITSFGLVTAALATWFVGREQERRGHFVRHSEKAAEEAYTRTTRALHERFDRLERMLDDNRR
As to the kind of experiment: thermal denaturation (intrinsic fluorescence) titration with fitted KD; pH […] (pH […]). The data set is classed as binding.

Data set [1] deals with T3, wild-type KcsA potassium channel (Streptomyces lividans), P0A334.
T3 chain: T2 sequence (P0A334 1-160)
The experiment in a line: SDS-PAGE; 12% SDS-PAGE of the detergent-solubilised (DDM) channel at room temperature, 10 mM Na+, pH 7.0 and pH 4.0, without or with 1 or 100 µM TOA+. The conditions noted are these: remark: other sources report otherwise.

Data set [2] deals with the molecule itself. As to the kind of experiment: FRET or BRET; homo-FRET among the W67 residues of the subunits, from steady-state and time-resolved fluorescence anisotropy; 5 µM protein in 5 mM DDM, pH 7.0 or pH 4.0, K+ titrated, with or without 100 µM TOA+.

T1 sequence (P0A334 whole entry W26F/W68F/W87F/W113F): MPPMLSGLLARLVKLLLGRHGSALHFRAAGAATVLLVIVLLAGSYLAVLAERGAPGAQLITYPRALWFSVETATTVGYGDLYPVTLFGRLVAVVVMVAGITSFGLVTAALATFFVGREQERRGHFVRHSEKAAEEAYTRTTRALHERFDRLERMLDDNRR

Turning to `CCCCCCCC[N+](CCCCCCCC)(CCCCCCCC)CCCCCCCC` [tetraoctylammonium], the Kd was found to be 0.107 µM at W67 KcsA and 0.18 µM on KcsA.

B1: wild-type KcsA potassium channel, P0A334 1-160 (natural protein)
chain: T2 sequence (P0A334 1-160)
Regarding B1, in data set [1], the stoichiometry N came out at 4.

B2: W67 KcsA (quadruple mutant W26, 68, 87, 113F KcsA with a single tryptophan, W67, per subunit) (natural protein, Streptomyces lividans, UniProt P0A334 1-160, looked up)
chain: T2 sequence (P0A334 1-160) with W26F, W68F, W87F, W113F
notes: KcsA, prokaryotic K+ channel from Streptomyces lividans, native Trp residues 26, 68, 87 and 113 mutated to Phe; also called KcsA W26, 68, 87, 113F; W67 mutant channel
With B2, the binding result in data set [2] was “binds”.

As a reminder, the Kd is the concentration at which binding is half-saturated. The low end stands for a tighter complex, the high end for a looser complex. For orientation: stoichiometry N means a count of units in the complex or per binding partner.

The record behind these values is PMC7825302, “Tetraoctylammonium, a Long Chain Quaternary Ammonium Blocker, Promotes a Noncollapsed, Resting-Like Inactivated State in KcsA” (International Journal of Molecular Sciences, 2021).
